For orientation: melting point means the temperature, or range, at which the solid turns liquid. The pEC50 is the negative decadic logarithm of the EC50, by convention in mol/L.

One data set addresses T1, human β3-AR (Homo sapiens, UniProt P13945).
T1 construct: Full length β3 AR clones (402 amino acids) containing the last 6 amino acids of hβ3; expressed in transfected cells; host or cells: CHO (Chinese hamster ovary) cells
Nature of the data set: cAMP accumulation (SPA) in CHO cells transfected with human β3 adrenergic receptor. Format: cell-based. Particulars: for Emax: read-out: IA(β3). How it is done:
The ability of compounds of this invention to treat or inhibit disorders related to insulin resistance or hyperglycemia was established with representative compounds of this invention in the following standard pharmacological test procedures, which measured the binding selectivity to the β1, β2, and β3 adrenergic receptors. Binding to the receptors was measured in Chinese Hamster ovary (CHO) cells that were transfected with adrenergic receptors. The following briefly summarizes the procedures used and results obtained.
Cloning of Human β3-AR Genomic DNA: cDNA was constructed by ligating four polymerase chain reaction (PCR) products using the following primers: an ATG-Narl fragment, sense primer 5′-[…]3′ and anti-sense primer 5′[…]3′; a Narl-Accl fragment, 5′[…]3′ as sense and 5′[…]3′ as anti-sense primer; an Accli-Styl fragment, sense primer 5′[…]3′ and anti-sense primer 5′[…]3′ and a Styl-TAG fragment, with sense primer 5′[…]3′ and anti-sense primer 5′[…]3′. The corresponding primer sequences are described in Mantzoros, C. S., etal, Diabetes 45: 909-914 (1996). The four fragments are ligated into a pUC 18 plasmid (Gibco-BRL) and sequenced. Full length β3 AR clones (402 amino acids) containing the last 6 amino acids of hβ3 . . . AR are prepared with the β3-βARpcDNA3 from ATTC.
Binding Procedure: Clones expressing receptor levels of 70 to 110 fmoles/mg protein were used in the test procedures. CHO cells were grown in 24-well tissue culture plates in Dulbecco's Modified Eagle Media with 10% fetal bovine serum, MEM non-essential amino acids, Penicillin-Streptompycin and Geneticin. On the day of test procedure, growth medium was replaced with preincubation media (Dulbecco's Modified Eagle Media and incubated for 30 minutes at 37° C. Preincubation medium was replaced with 0.2 ml treatment medium containing DMEM media containing 250 μM IBMX (isobutyl-1-methylxantine) plus 1 mM ascorbic acid with test compound dissolved in DMSO. Test compounds were tested over a concentration range of 10^−9 M to 10^−5 M for β3 cells and 10^″8 to 10^″4 M for β1 and β2 transfected cells. Isoproterenol (10^−5 M) was used as an internal standard for comparison of activity. Cells were incubated at 37° C. on a rocker for 30 min with the β3 cells and 15 min for β1 and β2 cells. Incubation was stopped with the addition of 0.2 N HCI and neutralized with 2.5 N NaOH. The plates, containing the cells and neutralized media, were stored at −20 degrees celsius until ready to test for cAMP using the SPA test kit (Amersham).
Data Analysis and Results: Data collected from the SPA test procedure were analyzed as percent of the maximal isoproterenol response at 10^−5 M. Activity curves were plotted using the SAS statistical and graphics software. EC50 values were generated for each compound and the maximal response (IA) developed for each compound is compared to the maximal response of isoproternol at 10^−5 M from the following formula: [formula]
In general terms: Cyclic AMP is a second messenger, typically raised through Gs and lowered through Gi signalling.

Where [1] appears, read: CHO cells expressing human β3-AR, cAMP, 30 min at 37° C., 10^-9 M to 10^-5 M, read-out: EC50(β3).
Where [2] appears, read: maximal response compared to the maximal response of isoproterenol at 10^-5 M, CHO cells expressing human β3-AR.

pEC50: −log10 of the molar value. Like-named read-outs stand apart in the source and are kept apart here.

T1 sequence (P13945 whole entry): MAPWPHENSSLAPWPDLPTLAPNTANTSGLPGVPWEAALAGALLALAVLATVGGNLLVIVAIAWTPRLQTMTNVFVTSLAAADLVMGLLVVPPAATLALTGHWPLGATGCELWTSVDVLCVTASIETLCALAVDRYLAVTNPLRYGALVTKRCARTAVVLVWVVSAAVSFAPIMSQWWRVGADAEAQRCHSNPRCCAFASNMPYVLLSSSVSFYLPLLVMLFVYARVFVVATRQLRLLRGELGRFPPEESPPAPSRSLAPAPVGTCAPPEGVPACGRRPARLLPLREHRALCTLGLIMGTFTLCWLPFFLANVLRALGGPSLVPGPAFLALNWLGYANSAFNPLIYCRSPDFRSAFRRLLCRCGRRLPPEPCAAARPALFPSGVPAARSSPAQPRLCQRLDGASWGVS

Consider `O=C1NC(=O)C(N(Cc2ccc(Br)cc2)c2ccc(CCNC[C@H](O)COc3ccccc3)cc2)S1` (stereo partly drawn) (hydrate or solvate) [Example 29, 5-((4-Bromo-benzyl)-{4-[2-((2 S)-2-hydroxy-3-phenoxy-propylamino)-ethyl]-phenyl}-amino)-thiazolidine-2,4-dione], for which the melting point lay in the range of 52 to 54 °C.

`O=C1NC(=O)C(Nc2ccc(CCNC[C@@H](O)c3cccnc3)cc2)S1` (stereo partly drawn) (hydrate or solvate) [Example 30, 5-{4-[2-((2 S)-2-Hydroxy-2-pyridin-3-yl-ethylamino)-ethyl]-phenylamino}-thiazolidine-2,4-dione] gave a melting point of 46 to 48 °C.

The compound `O=C1NC(=O)C(Nc2ccc(CCNC[C@H](O)c3cccnc3)cc2)S1` (stereo partly drawn) (hydrate or solvate) [Example 31, 5-{4-[2-((2 R)-2-Hydroxy-2-pyridin-3-yl-ethylamino)-ethyl]-phenylamino}-thiazolidine-2,4-dione] yielded a melting point of 65 to 67 °C.

Regarding `CN1C(=O)SC(Nc2ccc(CCNC[C@H](O)c3cccc(Cl)c3)cc2)C1=O` (stereo partly drawn) [Example 3, 5-[4-(2-{[(2 R)-2-(3-Chlorophenyl)-2-hydroxyethyl]amino}ethyl)anilino]-3-methyl-1,3-thiazolidine-2,4-dione], the melting point fell in the range of 129 to 131 °C.

Turning to `O=C1NC(=O)C(Nc2ccc(CCNC[C@H](O)COc3ccc(OCc4ccccc4)cc3)cc2)S1` (stereo partly drawn) [Example 4, 5-{4-[2-({(2 S)-3-[4-(Benzyloxy)phenoxy]-2-hydroxypropyl}amino)ethyl]anilino}-1,3-thiazolidine-2,4-dione], the melting point was determined as 152 °C. Besides, at human β3-AR (setting [1]), the pEC50 is 9.00. Further, at human β3-AR (setting [2]), the Emax amounted to 85%.

`O=C1NC(=O)C(Nc2ccc(CCNC[C@H](O)COc3ccc(O)cc3)cc2)S1` (stereo partly drawn) [Example 5, 5-[4-(2-{[(2 S)-2-Hydroxy-3-(4-hydroxyphenoxy)propyl]amino}ethyl)anilino]-1,3-thiazolidine-2,4-dione] yielded a melting point of 165 °C. Also, the pEC50 on human β3-AR (setting [1]) is 7.70. At human β3-AR (setting [2]), the Emax amounted to 99%.

In the case of `O=C1NC(=O)C(Nc2ccc(CCNC[C@H](O)c3cccc(Cl)c3)cc2)S1` (stereo partly drawn) [Example 6, 5-[4-(2-{[(2 R)-2-(3-Chlorophenyl)-2-hydroxy-ethyl]amino}ethyl)anilino]-1,3-thiazolidine-2,4-dione], the melting point is 162 °C. In addition, the pEC50 at human β3-AR (setting [1]) was 8.15. Also, the Emax at human β3-AR (setting [2]) came out at 83%.

Consider `O=C1NC(=O)C(Nc2ccc(CCNC[C@H](O)c3ccccc3)cc2)S1` (stereo partly drawn) [Example 7, 5-[4-(2-{[(2 R)-2-Hydroxy-2-phenylethyl]amino}ethyl)anilino]-1,3-thiazolidine-2,4-dione], for which the pEC50 at human β3-AR (setting [1]) is 7.08. The Emax at human β3-AR (setting [2]) is 94%.

As to `O=C1NC(=O)C(Nc2ccc(CCNC[C@H](O)COc3ccc(F)cc3)cc2)S1` (stereo partly drawn) [Example 8, 5-[4-(2-{[(2 S)-3-(4-Fluorophenoxy)-2-hydroxypropyl]amino}ethyl)anilino]-1,3-thiazolidine-2,4-dione], at human β3-AR (setting [1]), the pEC50 was 7.85. Besides, the Emax on human β3-AR (setting [2]) was found to be 66%.

As to `O=C1NC(=O)C(Nc2ccc(CCNC[C@H](O)COc3ccccc3)cc2)S1` (stereo partly drawn) [Example 9, 5-[4-(2-{[(2 S)-2-Hydroxy-3-phenoxypropyl]amino}ethyl)anilino]-1,3-thiazolidine-2,4-dione], the pEC50 at human β3-AR (setting [1]) was 9.05. Further, the Emax on human β3-AR (setting [2]) was found to be 98%.

In the case of `O=C1NC(=O)C(Nc2ccc(CCNC[C@H](O)COc3cccc(O)c3)cc2)S1` (stereo partly drawn) [Example 12, 5-[4-(2-{[(2 S)-2-Hydroxy-3-(3-hydroxyphenoxy)propyl]amino}ethyl)anilino]-1,3-thiazolidine-2,4-dione], the pEC50 on human β3-AR (setting [1]) is 8.52. For the same compound, the Emax at human β3-AR (setting [2]) worked out at 117%.

On to `O=C1NC(=O)C(Nc2ccc(CCNC[C@H](O)COc3cccc4[nH]c5ccccc5c34)cc2)S1` (stereo partly drawn) [Example 13, 5-[4-(2-{[(2 S)-3-(9 H-Carbazol-4-yloxy)-2-hydroxypropyl]amino}ethyl)anilino]-1 ,3-thiazolidine-2,4-dione], for which the pEC50 at human β3-AR (setting [1]) was 7.92. In addition, the Emax at human β3-AR (setting [2]) was 104%.

For the compound `CS(=O)(=O)Nc1cc([C@H](O)CNCCc2ccc(NC3SC(=O)NC3=O)cc2)ccc1O` (stereo partly drawn) [Example 14, N{5-[(1 S)-2-({4-[(2,4-Dioxo-1,3-thiazolidin-5-yl)amino]phenethyl}amino)-1-hydroxyethyl]-2-hydroxyphenyl}methanesulfonamide], the pEC50 at human β3-AR (setting [1]) is 8.05. Besides, the Emax on human β3-AR (setting [2]) was 111%.

For `CN(c1ccc(CCNC[C@H](O)COc2ccccc2)cc1)C1SC(=O)NC1=O` (stereo partly drawn) [Example 17, 5-[4-(2-{[(2 S)-2-Hydroxy-3-phenoxypropyl]amino}ethyl)(methyl)anilino]-1,3-thiazolidine-2,4-dione.], on human β3-AR (setting [1]), the pEC50 was 7.77. Moreover, the Emax on human β3-AR (setting [2]) turned out to be 68%.

Compound `CC(Cc1ccc(NC2SC(=O)NC2=O)cc1)NC[C@H](O)c1cccc(Cl)c1` (stereo partly drawn) [Example 18, 5-[4-(2-{[(2 R)-2-(3-Chlorophenyl)-2-hydroxyethyl]amino}propyl)anilino]-1,3-thiazolidine-2,4-dione] had a pEC50 on human β3-AR of 8.05. Besides, on human β3-AR (CHO), the Emax was determined as 89%.

Take `O=C1NC(=O)C(Nc2ccc(CCNC[C@@H](O)COc3cccc4[nH]c(=O)[nH]c34)cc2)S1` (stereo partly drawn) [Example 19, 5-{4-[2-({(2 R)-2-Hydroxy-3-[(2-oxo-2,3-di hydro-1 H-benzimidazol-4-yl)oxy]propyl}amino)ethyl]anilino}-1,3-thiazolidine-2,4-dione]: the pEC50 on human β3-AR (setting [1]) was 7.70. Further, the Emax at human β3-AR (setting [2]) amounted to 71%.

As for `O=C1NC(=O)C(Nc2ccc(CCNC[C@H](O)COc3ccc(-c4ccccc4)cc3)cc2)S1` (stereo partly drawn) [Example 22, 5-(4-{2-[(2 S)-3-(Biphenyl-4-yloxy)-2-hydroxy-propylamino]-ethyl}-phenylamino)-thiazolidine-2,4-dione], the melting point lay in the range of 70 to 71 °C.

`O=C1NC(=O)C(N(Cc2ccc(Br)cc2)c2ccc(CCNC[C@H](O)COc3ccccc3)cc2)S1` (stereo partly drawn) [Example 29, 5-((4-Bromo-benzyl)-{4-[2-((2 S)-2-hydroxy-3-phenoxy-propylamino)-ethyl]-phenyl}-amino)-thiazolidine-2,4-dione]: the pEC50 at human β3-AR (setting [1]) is 8.52. For the same compound, the Emax at human β3-AR (setting [2]) worked out at 109%.

`O=C1NC(=O)C(Nc2ccc(CCNC[C@H](O)c3cccnc3)cc2)S1` (stereo partly drawn) [Example 31, 5-{4-[2-((2 R)-2-Hydroxy-2-pyridin-3-yl-ethylamino)-ethyl]-phenylamino}-thiazolidine-2,4-dione]: at human β3-AR (setting [1]), the pEC50 was 7.02. Besides, the Emax at human β3-AR (setting [2]) amounted to 88%.

The values above are taken from patent US6465501B2, “Azolidines as β3 adrenergic receptor agonists” (Wyeth, priority 2000, dated 2002).
